Values joined by “and” are separate entries in the source; they are usually repeats but may differ in a detail not shown here. Equal values may be shown once. Inconclusive results and toxic doses are left out.
System: L1210 leukemia ip in BDF1 mice, survival T/C
Experiment: NCI In Vivo Anticancer Drug Screen. Data for tumor model L1210 Leukemia (intraperitoneal) in B6D2F1 (BDF1) mice
Conditions: endpoint: mean survival time, higher = longer survival
Summary of the method: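 Tumor was transplanted into mice, which were then dosed with test compound or vehicle alone. Survival was recorded for each group, and the treated figure was expressed relative to the control figure.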

[1] = dose: 100.0 mg/kg/injection, schedule: Q04DX003 (ip), vehicle: saline
[2] = dose: 100.0 mg/kg/injection, schedule: Q04DX003 (ip), vehicle: Klucel (hydroxypropylcellulose) (HPC)
[3] = dose: 200.0 mg/kg/injection, schedule: Q04DX003 (ip), vehicle: Klucel (hydroxypropylcellulose) (HPC)
[4] = dose: 25.0 mg/kg/injection, schedule: Q01DX009 (ip), vehicle: saline with Tween-80
[5] = dose: 50.0 mg/kg/injection, schedule: Q01DX009 (ip), vehicle: saline with Tween-80
[6] = dose: 100.0 mg/kg/injection, schedule: Q01DX009 (ip), vehicle: saline with Tween-80
[7] = dose: 100.0 mg/kg/injection, schedule: Q01DX001 (ip), vehicle: saline
[8] = dose: 200.0 mg/kg/injection, schedule: Q01DX001 (ip), vehicle: saline
[9] = dose: 400.0 mg/kg/injection, schedule: Q01DX001 (ip), vehicle: saline
[10] = dose: 100.0 mg/kg/injection, schedule: Q01DX009 (ip), vehicle: Klucel (hydroxypropylcellulose) (HPC)
[11] = dose: 200.0 mg/kg/injection, schedule: Q01DX009 (ip), vehicle: Klucel (hydroxypropylcellulose) (HPC)

CCC(=O)c1ccc2c(c1)N(CCCN1CCN(CCO)CC1)c1ccccc1S2 was tested, and the T/C (dose: 1.56 mg/kg/injection, schedule: Q03HX024 (ip), vehicle: saline) was 114 % of control, the T/C (dose: 3.12 mg/kg/injection, schedule: Q03HX024 (ip), vehicle: saline) was 101 % of control and the T/C (dose: 4.0 mg/kg/injection, schedule: Q01DX009 (ip), vehicle: saline) was 101 % of control. For the same compound, the T/C (dose: 6.25 mg/kg/injection, schedule: Q01DX009 (ip), vehicle: saline) was 104 % of control, the T/C (dose: 6.25 mg/kg/injection, schedule: Q03HX024 (ip), vehicle: saline) was 110 % of control and the T/C (dose: 6.25 mg/kg/injection, schedule: Q04DX003 (ip), vehicle: saline) was 113 % of control. The T/C (dose: 8.0 mg/kg/injection, schedule: Q01DX009 (ip), vehicle: saline) was 105 % of control, the T/C (dose: 12.5 mg/kg/injection, schedule: Q04DX003 (ip), vehicle: saline) was 93 % of control and the T/C (dose: 18.75 mg/kg/injection, schedule: Q01DX001 (ip), vehicle: saline) was 110 % of control. For the same compound, the T/C (dose: 25.0 mg/kg/injection, schedule: Q04DX003 (ip), vehicle: saline) was 98 % of control, the T/C (dose: 32.0 mg/kg/injection, schedule: Q01DX009 (ip), vehicle: saline) was 90 % of control and the T/C (dose: 37.5 mg/kg/injection, schedule: Q01DX001 (ip), vehicle: saline) was 103 % of control. The T/C (dose: 50.0 mg/kg/injection, schedule: Q04DX003 (ip), vehicle: saline) was 95 % of control, the T/C (dose: 75.0 mg/kg/injection, schedule: Q01DX001 (ip), vehicle: saline) was 119 % of control and the T/C [1] was 115 % of control.
For COc1cc(C=NC(C)(C)CO)cc(OC)c1, the T/C (dose: 100.0 mg/kg/injection, schedule: Q01DX001 (ip), vehicle: alcohol) was 88 % of control, the T/C (dose: 100.0 mg/kg/injection, schedule: Q04DX003 (ip), vehicle: alcohol) was 95 % of control and the T/C (dose: 200.0 mg/kg/injection, schedule: Q01DX001 (ip), vehicle: alcohol) was 96 % of control. For the same compound, the T/C (dose: 200.0 mg/kg/injection, schedule: Q04DX003 (ip), vehicle: alcohol) was 97 % of control, the T/C (dose: 400.0 mg/kg/injection, schedule: Q01DX001 (ip), vehicle: alcohol) was 96 % of control and the T/C (dose: 400.0 mg/kg/injection, schedule: Q04DX003 (ip), vehicle: alcohol) was 100 % of control.
For CC(=O)N1C=C(Br)c2ccccc2C1C1c2ccccc2C(Br)=CN1C(C)=O (configuration not stated), the T/C (dose: 100.0 mg/kg/injection, schedule: Q04DX003 (ip), vehicle: saline with Tween-80) was 91 % of control, the T/C (dose: 200.0 mg/kg/injection, schedule: Q04DX003 (ip), vehicle: saline with Tween-80) was 87 % of control and the T/C (dose: 400.0 mg/kg/injection, schedule: Q04DX003 (ip), vehicle: saline with Tween-80) was 91 % of control.
CCC(=O)Nc1cccc2ccccc12 was tested, and the T/C (dose: 12.5 mg/kg/injection, schedule: Q01DX009 (ip), vehicle: Klucel (hydroxypropylcellulose) (HPC)) was 104 % of control, the T/C (dose: 25.0 mg/kg/injection, schedule: Q01DX009 (ip), vehicle: Klucel (hydroxypropylcellulose) (HPC)) was 112 % of control and the T/C (dose: 50.0 mg/kg/injection, schedule: Q01DX009 (ip), vehicle: Klucel (hydroxypropylcellulose) (HPC)) was 101 % of control and 89 % of control. For the same compound, the T/C [2] was 95 % of control and the T/C [3] was 106 % of control.
[CH3][Hg][O]C(C)=O was tested, and the T/C (dose: 3.0 mg/kg/injection, schedule: Q01DX009 (ip), vehicle: Klucel (hydroxypropylcellulose) (HPC)) was 86 % of control, the T/C (dose: 3.12 mg/kg/injection, schedule: Q04DX003 (ip), vehicle: Klucel (hydroxypropylcellulose) (HPC)) was 104 % of control and the T/C (dose: 6.0 mg/kg/injection, schedule: Q01DX009 (ip), vehicle: Klucel (hydroxypropylcellulose) (HPC)) was 91 % of control. The T/C (dose: 6.25 mg/kg/injection, schedule: Q04DX003 (ip), vehicle: Klucel (hydroxypropylcellulose) (HPC)) was 96 % of control and the T/C (dose: 12.5 mg/kg/injection, schedule: Q04DX003 (ip), vehicle: Klucel (hydroxypropylcellulose) (HPC)) was 96 % of control and 97 % of control.
For C/C(CC(=O)N1CCCCC1)=N\NC(N)=S, the T/C (dose: 100.0 mg/kg/injection, schedule: Q01DX001 (ip), vehicle: carboxymethylcellulose (CMC)) was 97 % of control, the T/C (dose: 200.0 mg/kg/injection, schedule: Q01DX001 (ip), vehicle: carboxymethylcellulose (CMC)) was 103 % of control and the T/C (dose: 400.0 mg/kg/injection, schedule: Q01DX001 (ip), vehicle: carboxymethylcellulose (CMC)) was 94 % of control.
In the case of CC1(C)N=C(N)N=C(N)N1c1cccc(Br)c1, the T/C (dose: 2.5 mg/kg/injection, schedule: Q01DX Z (ip), vehicle: saline) is reported as 121 % of control, the T/C (dose: 11.0 mg/kg/injection, schedule: Q01DX Z (ip), vehicle: carboxymethylcellulose (CMC)) is reported as 117 % of control and the T/C (dose: 16.0 mg/kg/injection, schedule: Q01DX Z (ip), vehicle: saline) is reported as 162 % of control. The T/C (dose: 25.0 mg/kg/injection, schedule: Q01DX Z (ip), vehicle: saline) was 168 % of control, the T/C (dose: 37.0 mg/kg/injection, schedule: Q01DX Z (ip), vehicle: carboxymethylcellulose (CMC)) was 105 % of control and the T/C (dose: 50.0 mg/kg/injection, schedule: Q01DX Z (ip), vehicle: methylcellulose (MC)) was 97 % of control. For the same compound, the T/C (dose: 60.0 mg/kg/injection, schedule: Q01DX Z (ip), vehicle: carboxymethylcellulose (CMC)) was 107 % of control, the T/C (dose: 75.0 mg/kg/injection, schedule: Q01DX001 (ip), vehicle: other) was 103 % of control and the T/C (dose: 90.0 mg/kg/injection, schedule: Q01DX Z (ip), vehicle: carboxymethylcellulose (CMC)) was 90 % of control. The T/C (dose: 150.0 mg/kg/injection, schedule: Q01DX001 (ip), vehicle: other) was 108 % of control.
With O=P(CCl)(CCl)CCl the T/C [4] was 100 % of control, the T/C [5] was 92 % of control and the T/C [6] was 88 % of control and 92 % of control.
For CC(=O)NC(COC(C)=O)C1OC(C)(C)OC1C(COC(C)=O)OC(C)=O (configuration not stated), the T/C [7] was 101 % of control, the T/C [8] was 104 % of control and the T/C [9] was 98 % of control.
With O=[N+]([O-])c1ccc(C2OC2c2ccccc2)cc1 (configuration not stated) the T/C [10] was 101 % of control, the T/C [2] was 100 % of control and the T/C [11] was 95 % of control. For the same compound, the T/C [3] was 95 % of control, the T/C (dose: 400.0 mg/kg/injection, schedule: Q01DX009 (ip), vehicle: Klucel (hydroxypropylcellulose) (HPC)) was 95 % of control and the T/C (dose: 400.0 mg/kg/injection, schedule: Q04DX003 (ip), vehicle: Klucel (hydroxypropylcellulose) (HPC)) was 97 % of control.
O=[N+]([O-])c1cc(C(F)(F)F)cc([N+](=O)[O-])c1N/N=C/c1ccc(F)cc1 was tested, and the T/C [4] was 87 % of control, the T/C [5] was 94 % of control and the T/C [6] was 92 % of control and 89 % of control. The T/C (dose: 400.0 mg/kg/injection, schedule: Q01DX009 (ip), vehicle: saline with Tween-80) was 86 % of control.
In the case of COC(=O)N/N=C/c1ccccc1Cl, the T/C [10] is reported as 108 % of control, the T/C (dose: 100.0 mg/kg/injection, schedule: Q04DX002 (ip), vehicle: Klucel (hydroxypropylcellulose) (HPC)) is reported as 93 % of control and the T/C [11] is reported as 121 % of control. For the same compound, the T/C (dose: 200.0 mg/kg/injection, schedule: Q04DX002 (ip), vehicle: Klucel (hydroxypropylcellulose) (HPC)) was 104 % of control and the T/C (dose: 400.0 mg/kg/injection, schedule: Q04DX002 (ip), vehicle: Klucel (hydroxypropylcellulose) (HPC)) was 96 % of control.
S=C(Nc1cc2c3c(c1)CCCN3CCC2)Nc1cc2c3c(c1)CCCN3CCC2 was tested, and the T/C (dose: 50.0 mg/kg/injection, schedule: Q01DX001 (ip), vehicle: saline with Tween-80) was 107 % of control, the T/C (dose: 100.0 mg/kg/injection, schedule: Q01DX001 (ip), vehicle: saline with Tween-80) was 94 % of control and the T/C (dose: 200.0 mg/kg/injection, schedule: Q01DX001 (ip), vehicle: saline with Tween-80) was 97 % of control. For the same compound, the T/C (dose: 400.0 mg/kg/injection, schedule: Q01DX001 (ip), vehicle: saline with Tween-80) was 89 % of control.
With O=C(Nc1ccc(S(=O)(=O)O)cc1)c1ccc([N+](=O)[O-])cc1 the T/C (dose: 50.0 mg/kg/injection, schedule: Q01DX001 (ip), vehicle: saline) was 92 % of control, the T/C [7] was 103 % of control and the T/C (dose: 100.0 mg/kg/injection, schedule: Q01DX009 (ip), vehicle: saline) was 95 % of control. The T/C [1] was 100 % of control, the T/C [8] was 97 % of control and the T/C (dose: 200.0 mg/kg/injection, schedule: Q01DX009 (ip), vehicle: saline) was 102 % of control. For the same compound, the T/C (dose: 200.0 mg/kg/injection, schedule: Q04DX003 (ip), vehicle: saline) was 91 % of control, the T/C [9] was 97 % of control and the T/C (dose: 400.0 mg/kg/injection, schedule: Q01DX009 (ip), vehicle: saline) was 100 % of control. For the same compound, the T/C (dose: 400.0 mg/kg/injection, schedule: Q04DX003 (ip), vehicle: saline) was 100 % of control.
